In the case of CCc1ccc(C(=O)c2ccccc2C(=O)O)cc1, the solubility (mole fraction) (in 1,4-dioxane, 288.88 K) is reported as 0.0042, the solubility (mole fraction) (in 1,4-dioxane, 293.97 K) is reported as 0.0066 and the solubility (mole fraction) (in 1,4-dioxane, 298.46 K) is reported as 0.0091. For the same molecule, the solubility (mole fraction) (in 1,4-dioxane, 303.53 K) was 0.0121, the solubility (mole fraction) (in 1,4-dioxane, 308.09 K) was 0.0153 and the solubility (mole fraction) (in 1,4-dioxane, 313.4 K) was 0.0195. It also gave a solubility (mole fraction) (in 1,4-dioxane, 319.15 K) of 0.024, a solubility (mole fraction) (in 1,4-dioxane, 322.54 K) of 0.0278 and a solubility (mole fraction) (in 1,4-dioxane, 333.97 K) of 0.0353. It also gave a solubility (mole fraction) (in DMF, 281.2 K) of 0.343, a solubility (mole fraction) (in DMF, 286.49 K) of 0.367 and a solubility (mole fraction) (in DMF, 290.63 K) of 0.382. The solubility (mole fraction) (in DMF, 296.42 K) was 0.42, the solubility (mole fraction) (in DMF, 305.65 K) was 0.451 and the solubility (mole fraction) (in DMF, 314.34 K) was 0.47. The solubility (mole fraction) (in DMF, 325.55 K) was 0.507, the solubility (mole fraction) (in DMF, 335.75 K) was 0.532 and the solubility (mole fraction) (in NMP, 280.1 K) was 0.163. It also gave a solubility (mole fraction) (in NMP, 284.15 K) of 0.175, a solubility (mole fraction) (in NMP, 293.44 K) of 0.209 and a solubility (mole fraction) (in NMP, 303.76 K) of 0.26. It also gave a solubility (mole fraction) (in NMP, 313.15 K) of 0.315, a solubility (mole fraction) (in NMP, 322.85 K) of 0.396 and a solubility (mole fraction) (in NMP, 334.3 K) of 0.484. It also gave a solubility (mole fraction) (in THF, 281.2 K) of 0.0064, a solubility (mole fraction) (in THF, 286.49 K) of 0.0085 and a solubility (mole fraction) (in THF, 296.42 K) of 0.0125. For the same molecule, the solubility (mole fraction) (in THF, 305.65 K) was 0.0178, the solubility (mole fraction) (in THF, 314.34 K) was 0.0246 and the solubility (mole fraction) (in THF, 325.55 K) was 0.0377. For the same molecule, the solubility (mole fraction) (in THF, 330.34 K) was 0.0442, the solubility (mole fraction) (in THF, 335.75 K) was 0.0541 and the solubility (mole fraction) (in acetone, 280.25 K) was 0.0015. It also gave a solubility (mole fraction) (in acetone, 284.85 K) of 0.0022, a solubility (mole fraction) (in acetone, 290.87 K) of 0.0032 and a solubility (mole fraction) (in acetone, 299.83 K) of 0.0054. The solubility (mole fraction) (in acetone, 310.39 K) was 0.0087, the solubility (mole fraction) (in acetone, 314.89 K) was 0.0107 and the solubility (mole fraction) (in acetone, 319.6 K) was 0.0132. For the same molecule, the solubility (mole fraction) (in acetone, 324.16 K) was 0.0156, the solubility (mole fraction) (in benzene, 283.05 K) was 0.0023 and the solubility (mole fraction) (in benzene, 288.68 K) was 0.0037. It also gave a solubility (mole fraction) (in benzene, 293.52 K) of 0.0052, a solubility (mole fraction) (in benzene, 302.78 K) of 0.0109 and a solubility (mole fraction) (in benzene, 313.15 K) of 0.0228. It also gave a solubility (mole fraction) (in benzene, 322.65 K) of 0.0408, a solubility (mole fraction) (in benzene, 328.38 K) of 0.0598 and a solubility (mole fraction) (in benzene, 332.7 K) of 0.0793. For the same molecule, the solubility (mole fraction) (in ethanol, 282.29 K) was 0.0733, the solubility (mole fraction) (in ethanol, 289.68 K) was 0.1 and the solubility (mole fraction) (in ethanol, 294.91 K) was 0.123. For the same molecule, the solubility (mole fraction) (in ethanol, 304.6 K) was 0.164, the solubility (mole fraction) (in ethanol, 314.3 K) was 0.214 and the solubility (mole fraction) (in ethanol, 322.91 K) was 0.256. For the same molecule, the solubility (mole fraction) (in ethanol, 328.65 K) was 0.289, the solubility (mole fraction) (in ethanol, 338.19 K) was 0.354 and the solubility (mole fraction) (in ethanol, 342.82 K) was 0.388. The solubility (mole fraction) (in ethyl formate, 280.6 K) was 0.0014, the solubility (mole fraction) (in ethyl formate, 289.68 K) was 0.0027 and the solubility (mole fraction) (in ethyl formate, 294.91 K) was 0.0038. It also gave a solubility (mole fraction) (in ethyl formate, 299.65 K) of 0.005, a solubility (mole fraction) (in ethyl formate, 304.6 K) of 0.006 and a solubility (mole fraction) (in ethyl formate, 309.59 K) of 0.0075. The solubility (mole fraction) (in ethyl formate, 314.3 K) was 0.0087, the solubility (mole fraction) (in ethyl formate, 318.67 K) was 0.01 and the solubility (mole fraction) (in ethyl formate, 322.91 K) was 0.0113. For the same molecule, the solubility (mole fraction) (in isopropanol, 279.79 K) was 0.0023, the solubility (mole fraction) (in isopropanol, 284.74 K) was 0.0037 and the solubility (mole fraction) (in isopropanol, 294.05 K) was 0.0085. For the same molecule, the solubility (mole fraction) (in isopropanol, 303.99 K) was 0.0174, the solubility (mole fraction) (in isopropanol, 313.25 K) was 0.0305 and the solubility (mole fraction) (in isopropanol, 323.37 K) was 0.0464. The solubility (mole fraction) (in isopropanol, 334.05 K) was 0.0631, the solubility (mole fraction) (in methanol, 279.9 K) was 0.0627 and the solubility (mole fraction) (in methanol, 285.6 K) was 0.0827. It also gave a solubility (mole fraction) (in methanol, 290.81 K) of 0.101, a solubility (mole fraction) (in methanol, 295.45 K) of 0.118 and a solubility (mole fraction) (in methanol, 305.56 K) of 0.164. For the same molecule, the solubility (mole fraction) (in methanol, 314.4 K) was 0.202, the solubility (mole fraction) (in methanol, 323.8 K) was 0.248 and the solubility (mole fraction) (in methanol, 328.69 K) was 0.273. It also gave a solubility (mole fraction) (in methanol, 333.53 K) of 0.3, a solubility (mole fraction) (in n-propanol, 279.55 K) of 0.0499 and a solubility (mole fraction) (in n-propanol, 288.67 K) of 0.0777. It also gave a solubility (mole fraction) (in n-propanol, 299.23 K) of 0.121, a solubility (mole fraction) (in n-propanol, 308.86 K) of 0.168 and a solubility (mole fraction) (in n-propanol, 318.93 K) of 0.223. It also gave a solubility (mole fraction) (in n-propanol, 328.62 K) of 0.279, a solubility (mole fraction) (in n-propanol, 338.45 K) of 0.344 and a solubility (mole fraction) (in n-propanol, 343.15 K) of 0.387.

From BigSolDB 2.1
